The source of these data is patent US20140242673A1, “CHEMICALLY DEFINED CULTURE MEDIUM FOR FERMENTATION TO PRODUCE SUCCINIC ACID AND APPLICATION THEREOF” (NANJING UNIVERSITY OF TECHNOLOGY, priority 2011, published 2014).

Holding throughout (type): cell-based
Experiment [1] has as its system Mannheimia succiniciproducens MBEL55E. The experiment in a line: Production of succinic acid by fermentation with biotin replaced by 5-ALA. The method, then:
In this preferred embodiment, biotin (10˜20 mg/L) in culture medium is replaced by 0.1˜1 mg/L of 5-ALA, for fermentation experiment.
The microorganism adopts large Mannheimia succiniciproducens MBEL55E (strain from patents of publication No. EP2096177 and No. EP2199304).
Cultivation in fermenter: transfer activated seed liquid and sterilized glucose into fermenter; inoculum size shall be 7% (volume ratio); stirring speed shall be 200 rpm; allow fermentation at 37° C.; amount of CO2 connected shall be 0.25 vvm.
Conventional compositions of fermentation culture medium (g/L): 10 of mixed carbohydrate obtained from pre-treated stalk (measured total carbohydrate concentration), 3 of disodium fumarate, 4 of KH2PO4, 0.4 of MgCl2.6H2O, 0.4 of CaCl2, and 2 of NaCl; sterilize at pH value of 7.0 and 121° C. for 15 min; ammonia is adopted as neutralizing agent.

Experiment [2] deals with Actinobacillus succinogenes NJ113 (CGMCC 1716). The experiment in a line: Fermentation in defined medium with one growth factor missing (serum bottle, 30 h). Particulars: for bacterial growth / glucose remaining / succinic acid production: culture medium lacks the named growth factor; for OD660 / Residual glucose / Succinic acid: medium lacking the named growth factor, 30 h, 37° C., 200 rpm. The text has this:
To investigate the effect of critical factors on succinic acid production described by this invention can use any microorganism germ seed used for production of succinic acid using anaerobic fermentation in existing technology. This preferred embodiment uses NJ113 (Actinobacillus succinogenes NJ113), which has been patented (authorized publication No.: CN100537744C).
First, significance and effect of various amino acids, vitamins, and metallic microelements on bacterial growth and metabolism has been investigated on defined medium. Particular operation and cultivation conditions are as follows:
(1) Preparation of amino acid mixed liquids: Remove each one type of amino acid from the 18 types of amino acid being tested, to prepare a mixed liquid of remaining 17 types of amino acid of suitable concentration (suitable concentration refers to the concentration at which the substance of lowest solubility is completely dissolved), as well as a mixed liquid containing all 18 types of amino acid. Quantity of each such liquid is 100 mL. After filtration sterilization by 0.22 μm sterile filtering head, keep these liquids for later use. Refer to Attached Table 1 for contents of various amino acids in the culture medium.
(2) Preparation of vitamin mixed liquids: Using the method in […], remove each one type of vitamin from the 10 types of vitamin being tested, to prepare a mixed liquid of remaining 9 types of vitamin of suitable concentration (suitable concentration refers to the concentration at which the substance of lowest solubility is completely dissolved), as well as a mixed liquid containing all 10 types of vitamin. Quantity of each such liquid is 100 mL. After filtration sterilization by 0.22 μm sterile filtering head, keep these liquids for later use. Refer to Attached Table 1 for contents of various vitamins in the culture medium.
(3) Preparation of metallic microelement mixed liquids: Using the method in step (1), remove each one type of metal salt from the 12 types of metal salt being tested, to prepare a mixed liquid of remaining 11 types of metal salt of suitable concentration (suitable concentration refers to the concentration at which the substance of lowest solubility is completely dissolved), as well as a mixed liquid containing all 12 types of metal salt. Quantity of each such liquid is 100 mL. After sterilization at 121° C. for 15 min, keep these liquids for later use. Refer to Attached Table 1 for contents of various metal salts in the culture medium.
Conventional compositions of fermentation culture medium (g/L): 90 of glucose (separately sterilized), 1 of disodium fumarate, 2 of KH2PO4, 0.2 of MgCl2.6H2O, 0.2 of CaCl2, and 1 of NaCl; sterilized at pH of 7.0 and 121° C. for 15 min; sodium carbonate adopted as neutralizing agent.
In a 100 mL serum bottle, add […] of fermentation culture medium and 1 mL of Actinobacillus succinogenes NJ113 (CGMCC 1716) seed liquid that has been washed by sterilized water; sterilize at 121° C. for 15 min; and then add 4 mL of reserved mixed liquid not containing a type of amino acid, 0.5 mL of reserved mixed liquid containing all vitamins being tested, 1 mL of reserved mixed liquid containing all types of metal salt being tested, and […] of sterilized 600 g/L glucose, so that after inoculation, the total volume reaches 20 mL and glucose concentration is 30 g/L.
Use the same method to prepare fermentation culture medium that lacks a certain type of vitamin or metal salt.
Carry out fermentation of above culture media under the following conditions:
At mechanical shaker speed of 200 rpm and 37° C., allow fermentation for 30 h and then detect content of succinic acid in the fermentation liquid.

Experiment [3] concerns Escherichia coli. The experiment in a line: Production of succinic acid by fermentation at different biotin concentrations. The protocol:
This preferred embodiment reduces biotin consumption in the culture medium. Particular method of change of fermentation culture medium is described below.
Germ seed: Escherichia coli (strain from patent of publication No. CN102154339A)
Cultivation in fermenter: transfer activated seed liquid and sterilized glucose into fermenter; inoculum size shall be 5% (volume ratio); stirring speed shall be 200 rpm; allow fermentation at 37° C.; amount of CO2 connected shall be 0.25 vvm.
Conventional compositions of fermentation culture medium (g/L): 30 of glucose (separately sterilized), 2 of disodium fumarate, 3 of KH2PO4, 0.3 of MgCl2.6H2O, 0.23 of CaCl2, and 1 of NaCl; sterilized at pH of 7.0 and 121° C. for 15 min; sodium carbonate adopted as neutralizing agent.
In a 100 mL serum bottle, add 15 g/L of Na2HPO4, 4 g/L of KH2PO4, 13.1 mL of water, and 1 mL of Actinobacillus succinogenes NJ113 (CGMCC 1716) seed liquid after being washed by sterilized water; sterilize at 121° C. for 15 min, and then add 4 mL of reserved mixed liquid containing corresponding concentrations of amino acids, 0.5 mL of mixed liquid of vitamins including niacin and biotin so that […], 1 mL of reserved mixed liquid containing all metal salts being tested, and 0.4 mL of sterilized 500 g/L glucose solution, so that total volume after inoculation reaches 20 mL and glucose concentration is 10 g/L.
Fermentation experiment of above culture media containing different concentrations of biotin has been carried out under the same fermentation conditions as preferred embodiment 1:
According to identical germ seed, fermentation conditions, and experiment method of this preferred embodiment, biotin consumption in the culture medium is further lowered, to concentrations of 50 μg/L, 100 μg/L, 150 μg/L, 200 μg/L, and 300 μg/L respectively, for fermentation experiment: […]

Setting [4] is: 5-ALA 0.1~1 mg/L replacing biotin.

In experiment [1] (setting [4]), `NCC(=O)CCC(=O)O` [5-ALA, 5-aminolevulinate] showed a Residual glucose of 3.4 g/L and a Succinic acid of 15.6 ± 0.2 g/L. Besides, the “output of succinic acid compared with biotin” value in experiment [1] (biotin completely replaced by 5-ALA) was “can realize the highest output of succinic acid that can be obtained using biotin”.
`O=C(O)CCCC[C@@H]1SC[C@@H]2NC(=O)N[C@@H]21` [Biotin, biotin]: the bacterial growth entry in experiment [2] is reported as “relatively poor”. In addition, the glucose remaining result in experiment [2] is on record as “large amount of glucose remains”. Besides, in experiment [2], the succinic acid production entry is “very low”. This molecule returned an OD660 in experiment [2] of 0.3. For the same molecule, the Residual glucose in experiment [2] is given as 6.9 g/L; in experiment [3] (biotin 50 μg/L), 23 g/L; in experiment [3] (biotin 100 μg/L), 2.2 g/L; in experiment [3] (biotin 150 μg/L), 2.6 g/L; in experiment [3] (biotin 200 μg/L) it was 2.5 g/L; in experiment [3] (biotin 300 μg/L), 2.8 g/L. The Residual glucose in experiment [3] (biotin 2 mg/L), in experiment [3] (biotin 4 mg/L), in experiment [3] (biotin 6 mg/L), in experiment [3] (biotin 8 mg/L), in experiment [3] (biotin 10 mg/L) and in experiment [3] (biotin 20 mg/L) was 0 g/L each time. In addition, the Succinic acid in experiment [2] came out at 0.7 g/L; in experiment [3] (biotin 50 μg/L) it was 1.6 g/L; in experiment [3] (biotin 100 μg/L), 15.8 g/L; in experiment [3] (biotin 150 μg/L) it was 16.2 g/L; in experiment [3] (biotin 200 μg/L), 16.8 g/L; in experiment [3] (biotin 300 μg/L), 16.7 g/L. Also, the Succinic acid in experiment [3] (biotin 2 mg/L) is on record as 18.8 g/L; in experiment [3] (biotin 4 mg/L), 18.6 g/L; in experiment [3] (biotin 6 mg/L), 17.7 g/L; in experiment [3] (biotin 8 mg/L), 19.4 g/L; in experiment [3] (biotin 10 mg/L), 18.7 g/L; in experiment [3] (biotin 20 mg/L), 18.5 g/L.
In the case of `N[C@@H](CCC(=O)O)C(=O)O` [Glutamic acid], in experiment [2], the bacterial growth result is listed as “relatively poor”, the glucose remaining entry is reported as “large amount of glucose remains”, the succinic acid production result was “very low” and the OD660 turned out to be 0.4. Also, in experiment [2], the Residual glucose is listed as 8.1 g/L and the Succinic acid was found to be 0.5 g/L.
As for `CSCC[C@H](N)C(=O)O` [Methionine], in experiment [2], the bacterial growth entry is “relatively poor”, the glucose remaining entry was “large amount of glucose remains”, the succinic acid production entry is “very low” and the OD660 is reported as 0.6. In experiment [2], the Residual glucose is recorded as 4.3 g/L and the Succinic acid is 1.3 g/L.
As for `O=C(O)c1cccnc1` [Niacin], in experiment [2], the bacterial growth result was “relatively poor”, the glucose remaining entry is listed as “large amount of glucose remains”, the succinic acid production result is “very low” and the OD660 is 0.2. In experiment [2], this molecule showed a Residual glucose of 5.6 g/L and a Succinic acid of 0.1 g/L.
